From PubChem BioAssay (NCI)
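Tested at 5 concentrations; 48 h exposure; 96-well plates; endpoints linearly interpolated, else capped at highest concentration. GI50 = concentration required for 50% inhibition of growth. Definition used: TGI = concentration required for complete inhibition of growth.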

Columns and labels:
Assay in all cases: growth of human tumour cells (NCI), 48 h
SF-295 CNS = tested on: SF-295 CNS
SR leukemia = tested on: SR leukemia
HS 578T breast = tested on: HS 578T breast
HOP-92 NSCLC = tested on: HOP-92 NSCLC
NCI-H522 lung = tested on: NCI-H522 lung
T-47D breast = tested on: T-47D breast
KM20L2 colon = tested on: KM20L2 colon
DMS 114 small cell lung = tested on: DMS 114 small cell lung
LXFL 529 NSCLC = tested on: LXFL 529 NSCLC
HOP-18 NSCLC = tested on: HOP-18 NSCLC

Work on `O=C(CNc1ccccn1)Nn1cnc2ccc(S(=O)(=O)Nc3ccccn3)cc2c1=O` yielded a TGI (SF-295 CNS) of over 100 µM, a TGI (SR leukemia) of over 100 µM and a TGI (HS 578T breast) of over 100 µM. It also gave a TGI (HOP-92 NSCLC) of over 100 µM and a TGI (NCI-H522 lung) of over 100 µM.

Work on `FC(F)(F)c1ccc(C2ON=C(c3ccccc3)N2C23CC4CC(CC(C4)C2)C3)cc1` (stereo not drawn) yielded a TGI (SF-295 CNS) of over 10 µM, a TGI (SR leukemia) of over 10 µM and a TGI (HS 578T breast) of over 10 µM. For the same compound, the TGI (T-47D breast) was over 10 µM, the TGI (HOP-92 NSCLC) was over 10 µM and the TGI (NCI-H522 lung) was over 10 µM.

`CC(C)OC(=O)c1ccc(NCc2cc(O)ccc2O)cc1` showed a TGI (SF-295 CNS) of 20.4 µM, a TGI (SR leukemia) of 10.2 µM and a TGI (HS 578T breast) of over 29.6 µM. For the same compound, the TGI (T-47D breast) was 4.66 µM, the TGI (HOP-92 NSCLC) was 5.03 µM and the TGI (NCI-H522 lung) was 0.638 µM.

With `CC1=NN(c2nc(N)nc(NS(=O)(=O)c3cc(C)c(Cl)cc3S)n2)C(C)(C)C1` the TGI (SF-295 CNS) was over 10 µM, the TGI (SR leukemia) was over 10 µM and the TGI (HS 578T breast) was over 10 µM. It also gave a TGI (T-47D breast) of over 10 µM, a TGI (HOP-92 NSCLC) of over 10 µM and a TGI (NCI-H522 lung) of over 10 µM.

For `CC(=O)OI1NC(=O)c2ccccc21`, the TGI (SF-295 CNS) was over 100 µM, the TGI (SR leukemia) was over 100 µM and the TGI (HS 578T breast) was over 100 µM. The TGI (HOP-92 NSCLC) was over 100 µM and the TGI (NCI-H522 lung) was over 100 µM.

For `COc1ccc(C2c3cc4c(cc3OC(NNc3ccccc3)C2C)OCO4)cc1` (stereo not drawn), the TGI (SF-295 CNS) was over 100 µM, the TGI (SR leukemia) was 16.3 µM and the TGI (HS 578T breast) was over 100 µM. It also gave a TGI (T-47D breast) of over 100 µM, a TGI (HOP-92 NSCLC) of 67.9 µM and a TGI (NCI-H522 lung) of 94.6 µM.

Compound `CCOC1OC(CO)C(O)CC1n1ccc(=O)[nH]c1=O` (stereo not drawn) has a TGI (SF-295 CNS) of over 100 µM, a TGI (HS 578T breast) of over 100 µM and a TGI (T-47D breast) of over 100 µM. For the same compound, the TGI (HOP-92 NSCLC) was over 100 µM and the TGI (NCI-H522 lung) was over 100 µM.

`CC(C)C1CNC(=O)C2(C=NC(C(C)C)CNC(=O)C3(C=N1)CCCO3)CCCO2` (stereo not drawn) was tested, and the TGI (SF-295 CNS) was over 10 µM, the TGI (SR leukemia) was over 10 µM and the TGI (HS 578T breast) was over 10 µM. It also gave a TGI (T-47D breast) of over 10 µM, a TGI (HOP-92 NSCLC) of over 10 µM and a TGI (NCI-H522 lung) of over 10 µM.

`CC1=C(c2nc3ccccc3s2)C(=O)OC1(C)C` was tested, and the TGI (SF-295 CNS) was over 100 µM, the TGI (SR leukemia) was over 100 µM and the TGI (KM20L2 colon) was over 100 µM. For the same compound, the TGI (NCI-H522 lung) was over 100 µM, the TGI (DMS 114 small cell lung) was over 100 µM and the TGI (LXFL 529 NSCLC) was over 100 µM.

Compound `CCC(NC(C)c1ccccc1)C(=O)c1ccc(OCc2ccccc2)c(OCc2ccccc2)c1` (stereo not drawn) has a TGI (SF-295 CNS) of over 100 µM, a TGI (SR leukemia) of over 100 µM and a TGI (HS 578T breast) of over 100 µM. The TGI (T-47D breast) was over 100 µM, the TGI (HOP-92 NSCLC) was over 100 µM and the TGI (NCI-H522 lung) was over 100 µM.

With `COCC(C)(C)N=CN1Cc2cc3ccccc3nc2C1` the TGI (SF-295 CNS) was over 100 µM, the TGI (SR leukemia) was over 100 µM and the TGI (HOP-92 NSCLC) was over 100 µM. For the same compound, the TGI (KM20L2 colon) was over 100 µM, the TGI (HOP-18 NSCLC) was over 100 µM and the TGI (NCI-H522 lung) was over 100 µM. The TGI (DMS 114 small cell lung) was over 100 µM.

`CCOC(=O)N/N=C(/N)c1cccc(Br)c1` was tested, and the TGI (SF-295 CNS) was over 100 µM, the TGI (SR leukemia) was over 100 µM and the TGI (HS 578T breast) was over 100 µM. For the same compound, the TGI (T-47D breast) was over 100 µM and the TGI (NCI-H522 lung) was over 100 µM.

With `CC1(C)OP(=O)(c2ccccc2)C=C1Sc1ccc([N+](=O)[O-])cc1[N+](=O)[O-]` (stereo not drawn) the TGI (SF-295 CNS) was over 100 µM, the TGI (SR leukemia) was 42.9 µM and the TGI (HS 578T breast) was over 100 µM. The TGI (T-47D breast) was over 100 µM, the TGI (HOP-92 NSCLC) was over 100 µM and the TGI (NCI-H522 lung) was 36.6 µM.

With `Cc1cccc(C2ON=C(c3ccccc3)N2C23CC4CC(CC(C4)C2)C3)c1` (stereo not drawn) the TGI (SF-295 CNS) was over 10 µM, the TGI (SR leukemia) was over 10 µM and the TGI (HS 578T breast) was over 10 µM. It also gave a TGI (T-47D breast) of over 10 µM, a TGI (HOP-92 NSCLC) of over 10 µM and a TGI (NCI-H522 lung) of over 10 µM.

`O=C1C(c2ccccc2)=C(c2ccccc2)C(c2ccc(Cc3ccc(C4=C(c5ccccc5)C(=O)C(c5ccccc5)=C4c4ccccc4)cc3)cc2)=C1c1ccccc1` was tested, and the TGI (SF-295 CNS) was over 100 µM, the TGI (SR leukemia) was over 100 µM and the TGI (HOP-92 NSCLC) was over 100 µM. The TGI (KM20L2 colon) was over 100 µM, the TGI (HOP-18 NSCLC) was over 100 µM and the TGI (NCI-H522 lung) was over 100 µM. It also gave a TGI (DMS 114 small cell lung) of over 100 µM.

With `CCS(=O)C(=O)N(O)c1ccc(Cl)cc1` (stereo not drawn) the TGI (SF-295 CNS) was over 100 µM, the TGI (HS 578T breast) was over 100 µM and the TGI (T-47D breast) was over 100 µM. For the same compound, the TGI (HOP-92 NSCLC) was over 100 µM.

For `O[C@]12C=C(c3nccc4c3[nH]c3ccccc34)[C@@H]3CCN(CCCC/C=C\CC1)C[C@@]31CC3/C=C\CCCCN3[C@H]12` (stereo partly drawn), the TGI (SF-295 CNS) was 2.67 µM, the TGI (HS 578T breast) was 2.9 µM and the TGI (T-47D breast) was 4.67 µM. It also gave a TGI (HOP-92 NSCLC) of 0.741 µM and a TGI (NCI-H522 lung) of 2.21 µM.

For `O=C1N=C2SC=C(NC(=S)Nc3ccccc3)N2NC12c1ccccc1-c1ccccc12`, the TGI (SF-295 CNS) was over 10 µM, the TGI (SR leukemia) was over 10 µM and the TGI (HS 578T breast) was over 10 µM. The TGI (T-47D breast) was over 10 µM, the TGI (HOP-92 NSCLC) was over 10 µM and the TGI (NCI-H522 lung) was over 10 µM.

With `CC(C)[C@@H]1CC[C@@H](C)C[C@H]1OC(=O)c1c2n(c3ccccc13)C[C@H]1OC(C)(C)O[C@@H]21` the TGI (SF-295 CNS) was over 100 µM, the TGI (SR leukemia) was 24.1 µM and the TGI (HS 578T breast) was 51.9 µM. For the same compound, the TGI (T-47D breast) was over 100 µM.

Compound `CCOC(=O)C(NC(=O)OCc1ccccc1)C(=O)O` (stereo not drawn) has a TGI (SF-295 CNS) of over 100 µM, a TGI (SR leukemia) of over 100 µM and a TGI (HS 578T breast) of over 100 µM. It also gave a TGI (T-47D breast) of over 100 µM, a TGI (HOP-92 NSCLC) of over 100 µM and a TGI (NCI-H522 lung) of over 100 µM.

With `Clc1ccc(Cl)c(N=Nc2cc3c4c(c2)CCN4CCC3)c1` the TGI (SF-295 CNS) was over 10 µM, the TGI (SR leukemia) was over 10 µM and the TGI (HS 578T breast) was over 10 µM. It also gave a TGI (T-47D breast) of over 10 µM, a TGI (HOP-92 NSCLC) of over 10 µM and a TGI (NCI-H522 lung) of over 10 µM.

In the case of `CCN(CC)CCCNc1c2c(Cl)cc(Cl)cc2nc2nc(=O)[nH]c(C)c12`, the TGI (SF-295 CNS) is reported as over 100 µM, the TGI (SR leukemia) is reported as over 10 µM and the TGI (HS 578T breast) is reported as over 100 µM. It also gave a TGI (T-47D breast) of over 100 µM, a TGI (HOP-92 NSCLC) of over 100 µM and a TGI (NCI-H522 lung) of 46.9 µM.

`C=CCCC1(O)C(O)C(CO)O[C@H](O[C@@]2(CO)OC(CO)C(O)C2O)C1O` (stereo partly drawn) gave a TGI (SF-295 CNS) of over 100 µM, a TGI (SR leukemia) of over 100 µM and a TGI (HOP-92 NSCLC) of over 100 µM. The TGI (NCI-H522 lung) was over 100 µM.

`CC(=O)CCCCn1c(=O)c2c(nc(Br)n2C)n(C)c1=O` showed a TGI (SF-295 CNS) of over 100 µM, a TGI (SR leukemia) of over 100 µM and a TGI (HS 578T breast) of over 100 µM. For the same compound, the TGI (T-47D breast) was over 100 µM, the TGI (HOP-92 NSCLC) was 31.7 µM and the TGI (NCI-H522 lung) was 24.9 µM.

For `COC1(CC[C@@H](C)COC2OC(CO)C(O)C(O)C2O)O[C@H]2C[C@H]3[C@@H]4CC=C5C[C@@H](OC6OC(CO)C(OC7OC(C)C(O)C(O)C7O)C(O)C6OC6OC(C)C(O)C(O)C6O)CC[C@]5(C)[C@H]4CC[C@]3(C)[C@H]2[C@@H]1C` (stereo partly drawn), the GI50 (SF-295 CNS) was 2.02 µM, the TGI (SF-295 CNS) was 5.22 µM and the GI50 (SR leukemia) was 2.96 µM. The GI50 (HS 578T breast) was 1.18 µM, the TGI (HS 578T breast) was 3.99 µM and the GI50 (T-47D breast) was 4.08 µM. For the same compound, the TGI (T-47D breast) was 10.9 µM, the GI50 (HOP-92 NSCLC) was 2.32 µM and the TGI (HOP-92 NSCLC) was 7.97 µM. The TGI (NCI-H522 lung) was 4.23 µM.

`O=C1N/C(=N\N=C\c2ccccc2)C(c2ccccc2)O1` (stereo not drawn) was tested, and the TGI (SF-295 CNS) was over 100 µM, the TGI (SR leukemia) was over 100 µM and the TGI (HS 578T breast) was over 100 µM. The TGI (T-47D breast) was over 100 µM, the TGI (HOP-92 NSCLC) was over 100 µM and the TGI (NCI-H522 lung) was over 100 µM.

In the case of `CCc1n[nH]c(=O)n1CCCCCCCCn1c(CC)n[nH]c1=O`, the TGI (SF-295 CNS) is reported as over 100 µM, the TGI (SR leukemia) is reported as over 100 µM and the TGI (HS 578T breast) is reported as over 100 µM. It also gave a TGI (T-47D breast) of over 100 µM, a TGI (HOP-92 NSCLC) of over 100 µM and a TGI (NCI-H522 lung) of over 100 µM.

In the case of `C=C1CC(C)(COc2ccc3c(C)c(Cl)c(=O)oc3c2)OC1=O` (stereo not drawn), the TGI (SF-295 CNS) is reported as 21.4 µM, the TGI (SR leukemia) is reported as 6.47 µM and the TGI (HS 578T breast) is reported as over 100 µM. For the same compound, the TGI (HOP-92 NSCLC) was 4.41 µM and the TGI (NCI-H522 lung) was 2.1 µM.

`Cc1cc2ncn(-c3nc4ccccc4nc3C(C#N)S(C)(=O)=O)c2cc1C` (stereo not drawn) was tested, and the TGI (SR leukemia) was over 100 µM, the TGI (KM20L2 colon) was over 100 µM and the TGI (NCI-H522 lung) was over 100 µM. The TGI (DMS 114 small cell lung) was over 100 µM and the TGI (LXFL 529 NSCLC) was over 100 µM.

Work on `O=C1Oc2ccccc2C1C/C(=N\Nc1ccccc1)c1ccccc1O` (stereo not drawn) yielded a TGI (SF-295 CNS) of over 100 µM, a TGI (SR leukemia) of 58.1 µM and a TGI (HS 578T breast) of over 100 µM. The TGI (T-47D breast) was 81.8 µM, the TGI (HOP-92 NSCLC) was 78.8 µM and the TGI (NCI-H522 lung) was 98 µM.
